Source: patent publication US6635637B2, “Cyclic oxyguanidine protease inhibitors” (Dimensional Pharmaceuticals, Inc., priority 2000, dated 2003)
Structures can show the parent of a compound that is named as a salt.

Biological target: T1, human α-thrombin (Homo sapiens, UniProt P00734)
T1 construct: Purified human α-thrombin; purchased Enzyme Research Laboratories (South Bend, Ind.)
Assay: In vitro inhibition of purified thrombin (p-nitroanilide substrate hydrolysis, Ki determination)
Format: biochemical
Details: purified human α-thrombin 0.5 nM; substrate N-succinyl-Ala-Ala-Pro-Arg-p-nitroanilide 32 μM; 37° C.; pH 7.5
From the text: Reagents: All buffer salts were obtained from Sigma Chemical Company (St. Louis, Mo.), and were of the highest purity available. The enzyme substrates, N—N-benzoyl-Phe-Val-Arg-p-nitroanilide (Sigma B7632), N-benzoyl-Ile-Glu-Gly-Arg-p-nitroanilide hydrochloride (Sigma B2291), N-p-Tosyl-Gly-Pro-Lys-p-nitroanilide (Sigma T6140), N-succinyl-Ala-Ala-Pro-Phe-p-nitroanilide (Sigma S7388) and N-CBZ-Val-Gly-Arg-p-nitroanilide (Sigma C7271) were obtained from Sigma. N-succinyl-Ala-Ala-Pro-Arg-p-nitroanilide (BACHEM L-1720) and N-succinyl-Ala-Ala-Pro-Val-p-nitroanilide (BACHEM L-1770) were obtained from BACHEM (King of Prussia, Pa.).
Human α-thrombin, human factor Xa and human plasmin were obtained from Enzyme Research Laboratories (South Bend, Ind.). Bovine α-chymotrypsin (Sigma C4129), bovine trypsin (Sigma T8642) and human kidney cell urokinase (Sigma U5004) were obtained from Sigma. Human leukocyte elastase was obtained from Elastin Products (Pacific, Mo.).
Ki Determinations: All assays are based on the ability of the test compound to inhibit the enzyme catalyzed hydrolysis of a peptide p-nitroanilide substrate. […] In general, substrate concentrations are lower than the experimentally determined value for Km. […]
In a typical Ki determination, into each well of a 96 well plate is pipetted 280 μL of substrate solution, 10 μL of test compound solution, and the plate allowed to thermally equilibrate at 37° C. in a Molecular Devices plate reader for >15 minutes. Reactions were initiated by the addition of a 10 μL aliquot of enzyme and the absorbance increase at 405 nm is recorded for 15 minutes. […] The ratio of the velocity (rate of change in absorbance as a function of time) for a sample containing no test compound is divided by the velocity of a sample containing test compound, and is plotted as a function of test compound concentration. The data are fit to a linear regression, and the value of the slope of the line calculated. The inverse of the slope is the experimentally determined Ki value. […]

Ki | SMILES
7 nM | Cc1cc(OCC2CCN(C(=N)N)OC2)cc(OS(=O)(=O)c2ccccc2S(C)(=O)=O)c1 (stereo not drawn) [Example 1, 3-[(2-Amidino(1,2-oxazaperhydroin-5-yl))methoxy]-5-methylphenyl 2-(methylsulfonyl)benzenesulfonate Trifluoroacetate]
13 nM | CS(=O)(=O)c1ccccc1S(=O)(=O)Oc1cc(Cl)cc(OCC2CCN(C(=N)N)OC2)c1 (stereo not drawn) [Example 2, 3-[(2-Amidino(1,2-oxazaperhydroin-5-yl))methoxy]-5-chlorophenyl 2-(methylsulfonyl)benzenesulfonate trifluoroacetate]
8 nM | C=CCN(C(=O)c1cc(Cl)cc(OCC2CCN(C(=N)N)OC2)c1)C1CCCC1 (stereo not drawn) [Example 3, 5-{[5-Chloro-3-(N-cyclopentyl-N-prop-2-enylcarbamoyl)phenoxy]methyl}-1,2-oxazaperhydroine-2-carboxamidine trifluoroacetate]
